From PMC6533141 (Chemical biology & drug design, 2019)
pIC50, pKi: −log10 of the molar value.

What was measured:
[1] = target: T1, HAT1 (Homo sapiens, UniProt O14929); experiment: Scintillation proximity assay; type: biochemical; conditions: SPA, 40 nM HAT1, […] H4-20 BTN, 1 µM [3H]AcCoA, 30°C, 20 min; for pKi: calculated from Kiapp (Equation 2); for pIC50: calculated from Kiapp (Equation 3)
T1 sequence (O14929 20-341): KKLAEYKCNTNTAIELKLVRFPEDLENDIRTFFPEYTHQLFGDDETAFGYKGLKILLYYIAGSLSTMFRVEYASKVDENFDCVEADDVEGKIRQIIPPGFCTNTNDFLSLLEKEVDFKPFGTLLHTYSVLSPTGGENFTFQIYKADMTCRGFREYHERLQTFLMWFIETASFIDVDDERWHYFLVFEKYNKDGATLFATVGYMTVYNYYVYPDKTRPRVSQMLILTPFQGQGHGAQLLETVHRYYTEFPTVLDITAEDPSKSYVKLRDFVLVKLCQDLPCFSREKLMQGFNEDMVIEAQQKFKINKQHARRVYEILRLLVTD

[2] = test system: p300; conditions: cited from earlier work

pKi [1]	pIC50 [1]	Structure (SMILES)	pIC50 [2]	pKi ([2]; previous study)
4.84	4.38	CC(C)(COP(=O)(O)OP(=O)(O)OC[C@H]1O[C@@H](n2cnc3c(N)ncnc32)[C@H](O)[C@@H]1OP(=O)(O)O)[C@@H](O)C(=O)NCCC(=O)NCCS [CoA]		
4.58	4.13	CC(=O)N[C@@H](CCCCNC(=O)CSCCNC(=O)CCNC(=O)[C@H](O)C(C)(C)COP(=O)(O)OP(=O)(O)OC[C@H]1O[C@@H](n2cnc3c(N)ncnc32)[C@H](O)[C@@H]1OP(=O)(O)O)C(N)=O [Lys-CoA, Ac-Lys(CoA)-NH2]	6.30	7.72
